Test results reported in patent US10898548B2, “Modulators of protein tyrosine phosphatase and uses thereof” (LEUVAS THERAPEUTICS, priority 2015, dated 2021).
Entries after “also recorded” stand apart in the source; their conditions may differ. Marks after values point to notes of the source that are not given here.

Tests used:
human neutrophils = assay: fMLP-triggered adhesion of neutrophils (PMNs) to ICAM-1; type: cell-based; conditions: for adhesion of human neutrophils to ICAM-1 (adherent cells), Resting (no stimulation): mean ± SD
Method: We investigated the functional effect of PTPRG activation on integrin activation and mediated adhesion by chemoattractants in human primary monocytes and PMNs in a static and flow adhesion assays. Briefly, human primary monocytes or polymorphonuclear cells were suspended at 5×10^6/ml in standard adhesion buffer. Adhesion assays were performed on 18-well glass slides coated with 1 mg/ml human fibrinogen or with 1 μg/ml human ICAM-1 in PBS; 20 μl of cell suspension were added to the coated wells and stimulated for 1 min at 37° C. with 5 μl of fMLP, 0.05 μM final concentration. After rapid washing, adherent cells were fixed in ice-cold 1.5% glutaraldehyde in PBS, and still images of adherent cells in 0.2 mm^2 fields were acquired al 20× phase contrast magnification, NA 0.40, with a charge-coupled device camera (ICD-42B; Ikegami) connected to an inverted microscope (IX50; Olympus). Image acquisition and computer-assisted enumeration of adherent cells were performed with ImageJ (National Institute of Health).
Chemokine-triggered adhesion of human neutrophils was measured similarly. Freshly isolated, non-activated human neutrophils incubated with buffer or increasing concentrations of TAT-ICD and then spotted onto ICAM-1-coated slides. Integrin-mediated adhesion was triggered using 50 nM fMLP and the adherent cells were fixed and enumerated as described for the lymphocytes above.

PTPRG = assay: in vitro phosphatase activity (pNPP) on membranes from human primary monocytes; type: biochemical; conditions: monocyte membranes, DMSO 7.25
Method: (§1) We first tested the biochemical activity of the fusion peptide by performing in vitro assays of phosphatase activity on purified membranes isolated from human primary monocytes compared to membranes isolated from human primary polymorphonuclear cells (PMNs). Human primary monocytes and polymorphonuclear (PMNs) cells were isolated from whole blood of healthy donors. Purity of monocyte preparation was evaluated by flow cytometry after staining with fluorescein isothiocyanate (FITC)-conjugated anti-CD14 antibody and was more than 95%. Isolated cells were kept at 37° C. in standard adhesion buffer (PBS, 1 mM CaCl2, 1 mM MgCl2, 10% FBS, pH 7.2) and used within 1 h.
(§2) The phosphatase activity in membrane fractions isolated from human monocytes and PMNs was assessed. […] Cells were then sonicated twice (6 sec, 15% W) and centrifuged at 2000 rpm for 10 minutes. The supernatants were collected and centrifuged at 28000 rpm for 60 minutes. After centrifugation, the supernatants were discarded, and the membrane pellets were dissolved in 20 mM tris pH 7.4. Equal amount of membrane fractions were added to pNPP buffer containing 20 mM tris, 10 mM DTT and 2 mM pNPP. Following, DMSO and peptides were added. After 30 minutes of incubation, levels of de-phosphorylation, in presence or absence of orthovanadate, were measured at 405 nm by a plate reader. Values are absorbance at 405 nn shown as percent fold increase over the blank; mean values of three experiments are shown. *p<0.001 vs vehicle (DMSO).

[1] = tested on: tyrosine phosphatase activity in PMNs; assay: in vitro phosphatase activity (pNPP) on membranes from human primary PMNs; type: biochemical; conditions: PMN membranes, DMSO 0.75
Method: as §1, §2

U251 GBM cells = assay: cell number by flow cytometry, U251 GBM cells; type: cell-based; conditions: input 5000
Method: Cell viability and survival was measured using the MTT assay, a colorimetric assay for assessing cell metabolic activity set up under conditions where the absorption reflects the number of viable cells present (Table 21 and 22) and expressed as relative absorption at 570 nm. Early apoptosis was measured using VYBRANT DyeCycle Violet stain (Molecular Probes), a DNA-selective, cell membrane-permeant dye that can distinguish the compacted state of the nuclear chromatin in apoptotic cells as determined by flow cytometry and presented as the percent of cells that are apoptotic (Table 23 and 24). The actual number of cells following treatment with TAT-ICD or TAT alone (Table 25) was determined using flow cytometry compared to an input of 5,000 cells at time zero. To confirm apoptosis the TUNEL labeling assay, which detects DNA strand breaks in apoptotic cells by fluorescence microscopy, was also used to examine U251 cells treated with the PTPRG WD. Briefly, the assay used an optimized terminal transferase ([…]) to label 3′OH ends in genomic DNA with TMR-dUTP, thus allowing the measurement and quantification of cell death by apoptosis. U251 cells were pretreated for 1, 3 and 6 hours with 50 μM P1-WD. Then cells were fixed and permeabilized, incubated with TUNEL reaction mixture for 1 h at RT, and then stained with DAPI (for nuclei detection) and with Alexa670-Phalloidin (to detect actin in cell membranes). After the staining steps, cells were visualized with a confocal microscope.

[2] = in vitro phosphatase assay of TAT-ICD (pNPP); type: biochemical; conditions: 50 μM TAT control peptide or 50 μM TAT-ICD; 30 minutes
Method: Cells were then sonicated twice (6 sec, 15% \N) and centrifuged at 2000 rpm for 10 minutes. The supernatants were collected and centrifuged at 28000 rpm for 60 minutes and then the membrane pellets were dissolved in 20 mM tris pH 7.4. Equal amount of membrane fractions were added to pNPP buffer containing 20 mM tris, 10 mM DTT and 2 mM pNPP. Following, DMSO and 50 μM TAT control peptide or 50 μM TAT-ICD, in presence or absence of 200 μM Na3VO4 were added. After 30 minutes of incubation, levels of de-phosphorylation, in presence or absence of orthovanadate, were measured at 405 nm by a plate reader (Table 5). Shown is % fold increase over the pNPP buffer alone; mean values of 7 experiments in triplicate.

COS7 cells = assay: MTT assay, COS7 cells; type: cell-based
[3] = control peptide, concentration not given

For “P1-WD: fusion Trojan peptide SEQ ID 3: Penetratin, glycine, PTPRG wedge domain aa 831-856; RQIKIWFQNRRMKWKKGKQFVKHIGELYSNNQHGFSEDFEEVQ (listed as Homo sapiens)”, the “chemoattractant-induced adhesion / integrin activation of PMNs” value (human neutrophils; human PMNs) was “completely unaffected; also recorded: not able to block”, the “phosphatase activity, absorbance at 405 nm as percent fold increase over the blank” value (PTPRG; P1-WD 50 micromolar) was 34.62* % and the “phosphatase activity, absorbance at 405 nm as percent fold increase over the blank” value (PTPRG; P1-WD 100 micromolar) was 86.70* %. The “phosphatase activity, absorbance at 405 nm as percent fold increase over the blank” value (PTPRG; P1-WD 200 micromolar) was 109.00* %, the “phosphatase activity, absorbance at 405 nm as percent fold increase over the blank” value ([1]; P1-WD 50 micromolar) was 5.15% and the “phosphatase activity, absorbance at 405 nm as percent fold increase over the blank” value ([1]; P1-WD 100 micromolar) was 8.54%. The “phosphatase activity, absorbance at 405 nm as percent fold increase over the blank” value ([1]; P1-WD 200 micromolar) was 12.89%.

In the case of “P1: Penetratin delivery peptide, 16 aa RQIKIWFQNRRMKWKK (SEQ ID 4), control [reference compound]”, the “phosphatase activity, absorbance at 405 nm as percent fold increase over the blank” value (PTPRG; [3]) is reported as 16.00% and the “phosphatase activity, absorbance at 405 nm as percent fold increase over the blank” value [1, 3] is reported as 5.08%.

With “TAT (GRKKRRQRRRPPQ; listed as Homo sapiens) [reference compound]” the number of cells (U251 GBM cells; TAT 50 μM, 6 hours, Control 5000) was 4700 cells per standard volume of medium, the number of cells (U251 GBM cells; TAT 50 μM, 9 hours, Control 10000) was 7000 cells per standard volume of medium and the number of cells (U251 GBM cells; TAT 50 μM, 24 hours, Control 10000) was 11385 cells per standard volume of medium. The “phosphatase activity, % fold increase over the pNPP buffer alone” value [2] was 191.7%, the “mean absorbance in the MTT assay” value (COS7 cells; 0.1 μM, 24 hours, CTRL 700) was 649 and the “mean absorbance in the MTT assay” value (COS7 cells; 0.1 μM, 48 hours, CTRL 1267) was 1320. The “mean absorbance in the MTT assay” value (COS7 cells; 0.1 μM, 72 hours, CTRL 1500) was 1495, the “mean absorbance in the MTT assay” value (COS7 cells; 0.25 μM, 24 hours, CTRL 700) was 624 and the “mean absorbance in the MTT assay” value (COS7 cells; 0.25 μM, 48 hours, CTRL 1267) was 1250. For the same substance, the “mean absorbance in the MTT assay” value (COS7 cells; 0.25 μM, 72 hours, CTRL 1500) was 1388, the “mean absorbance in the MTT assay” value (COS7 cells; 0.5 μM, 24 hours, CTRL 700) was 650 and the “mean absorbance in the MTT assay” value (COS7 cells; 0.5 μM, 48 hours, CTRL 1267) was 1289. The “mean absorbance in the MTT assay” value (COS7 cells; 0.5 μM, 72 hours, CTRL 1500) was 1341.

With “TAT-ICD: fusion recombinant protein SEQ ID 5: PTPRG intracellular domain aa 797-1445 fused to 13 aa TAT sequence” the “adhesion of human neutrophils to ICAM-1 (adherent cells), Resting (no stimulation)” value (human neutrophils; TAT-ICD 0.5 micromolar) was 12 ± 5, the “adhesion of human neutrophils to ICAM-1 (adherent cells), Resting (no stimulation)” value (human neutrophils; TAT-ICD 1.0 micromolar) was 12 ± 5 and the number of cells (U251 GBM cells; TAT-ICD 0.5 μM, 6 hours, Control 5000) was 4676 cells per standard volume of medium. The number of cells (U251 GBM cells; TAT-ICD 0.5 μM, 9 hours, Control 10000) was 5400 cells per standard volume of medium, the number of cells (U251 GBM cells; TAT-ICD 0.5 μM, 24 hours, Control 10000) was 6094 cells per standard volume of medium and the number of cells (U251 GBM cells; TAT-ICD 1 μM, 6 hours, Control 5000) was 2688 cells per standard volume of medium. For the same substance, the number of cells (U251 GBM cells; TAT-ICD 1 μM, 9 hours, Control 10000) was 5434 cells per standard volume of medium, the number of cells (U251 GBM cells; TAT-ICD 1 μM, 24 hours, Control 10000) was 5300 cells per standard volume of medium and the number of cells (U251 GBM cells; TAT-ICD 2 μM, 6 hours, Control 5000) was 3943 cells per standard volume of medium. The number of cells (U251 GBM cells; TAT-ICD 2 μM, 9 hours, Control 10000) was 3016 cells per standard volume of medium, the number of cells (U251 GBM cells; TAT-ICD 2 μM, 24 hours, Control 10000) was 4500 cells per standard volume of medium and the “phosphatase activity, % fold increase over the pNPP buffer alone” value [2] was 4661.0%. The “mean absorbance in the MTT assay” value (COS7 cells; 0.1 μM, 24 hours, CTRL 700) was 674, the “mean absorbance in the MTT assay” value (COS7 cells; 0.1 μM, 48 hours, CTRL 1267) was 1391 and the “mean absorbance in the MTT assay” value (COS7 cells; 0.1 μM, 72 hours, CTRL 1500) was 1481. The “mean absorbance in the MTT assay” value (COS7 cells; 0.25 μM, 24 hours, CTRL 700) was 684, the “mean absorbance in the MTT assay” value (COS7 cells; 0.25 μM, 48 hours, CTRL 1267) was 1289 and the “mean absorbance in the MTT assay” value (COS7 cells; 0.25 μM, 72 hours, CTRL 1500) was 1489. The “mean absorbance in the MTT assay” value (COS7 cells; 0.5 μM, 24 hours, CTRL 700) was 694, the “mean absorbance in the MTT assay” value (COS7 cells; 0.5 μM, 48 hours, CTRL 1267) was 1295 and the “mean absorbance in the MTT assay” value (COS7 cells; 0.5 μM, 72 hours, CTRL 1500) was 1461.
